According to US10800746B2, “Oxoalkyl-substituted phenyltriazole derivatives and uses thereof” (BAYER PHARMA AKTIENGESELLSCHAFT, priority 2016, dated 2020):

What was measured:
[1] = target: human V2 receptor (Homo sapiens (Human), UniProt P30518); experiment: Cellular in vitro assay for vasopressin receptor activity, V2 receptor cell line (CRE-luciferase); format: cell-based; conditions: CHO cell line transfected with human V2 receptor; [Arg8]-vasopressin at EC50; read-out: IC50 hV2
Description: (§1) The identification of agonists and antagonists of the V1a and V2 vasopressin receptors from humans, rats and dogs as well as the quantification of the activity of the compounds of the invention is carried out using recombinant cell lines. These cell lines originally derive from a hamster's ovary epithelial cell (Chinese Hamster Ovary, CHO K1, ATCC: American Type Culture Collection, Manassas, Va. 20108, USA). The test cell lines constitutively express the human, rat or dog V1a or V2 receptors. In case of the Gαq-coupled V1a receptors, cells are also stably transfected with a modified form of the calcium-sensitive photoproteins aequorin (human and rat V1a) or obelin (dog V1a), which, after reconstitution with the cofactor coelenterazine, emit light when there are increases in free calcium concentrations [Rizzuto R, Simpson A W, Brini M, Pozzan T, Nature 358, 325-327 (1992); Illarionov B A, Bondar V S, Illarionova V A, Vysotski E S, Gene 153 (2), 273-274 (1995)]. The resulting vasopressin receptor cells react to stimulation of the recombinantly expressed V1a receptors by intracellular release of calcium ions, which can be quantified by the resulting photoprotein luminescence. The Gs-coupled V2 receptors are stably transfected into cell lines expressing the gene for firefly luciferase under control of a CRE-responsible promoter. Activation of V2 receptors induces the activation of the CRE-responsive promoter via cAMP increase, thereby inducing the expression of firefly luciferase. The light emitted by photoproteins of V1a cell lines as well as the light emitted by firefly luciferase of V2 cell lines corresponds to the activation or inhibition of the respective vasopressin receptor. The bioluminescence of the cell lines is detected using a suitable luminometer [Milligan G, Marshall F, Rees S, Trends in Pharmacological Sciences 17, 235-237 (1996)].
On the day before the assay, the cells are plated out in culture medium (DMEM/F12, 2% FCS, 2 mM glutamine, 10 mM HEPES) in 384-well microtiter plates and kept in a cell incubator (96% humidity, 5% v/v CO2, 37° C.). […] Upon addition of the cell lysis reagent Triton™ and the substrate luciferin, luminescence of firefly luciferase is measured in a luminometer.

[2] = tested on: Wistar rats; experiment: Diuresis investigations in conscious rats kept in metabolism cages; format: in vivo; conditions: rat
Description: Wistar rats (220-450 g body weight) are kept with free access to feed (Altromin) and drinking water. During the experiment, the animals are kept with free access to drinking water for 4 to 8 or up to 24 hours individually in metabolism cages suitable for rats of this weight class (Tecniplast Deutschland GmbH, D-82383 Hohenpeißenberg). At the beginning of the experiment, the animals are administered the test substance in a volume of 1 to 3 ml/kg body weight of a suitable solvent by means of gavage into the stomach. Control animals only receive solvent. Controls and substance tests are carried out in parallel on the same day. Control groups and substance-dose groups each consist of 4 to 8 animals. During the experiment, the urine excreted by the animals is collected continuously in a receiver at the base of the cage. The volume of urine per time unit is determined separately for each animal, and the concentration of urinary electrolytes is measured by standard methods of flame photometry. Before the beginning of the experiment, the body weight of the individual animals is determined.

[3] = target: human V1a receptor (Homo sapiens (Human), UniProt P37288); experiment: Cellular in vitro assay for vasopressin receptor activity, V1a receptor cell line (aequorin luminescence); format: cell-based; conditions: CHO cell line transfected with human V1a receptor; [Arg8]-vasopressin at EC50; read-out: IC50 hV1a
Description: as §1
On the day before the assay, the cells are plated out in culture medium (DMEM/F12, 2% FCS, 2 mM glutamine, 10 mM HEPES, 5 μg/ml coelenterazine) in 384-well microtiter plates and kept in a cell incubator (96% humidity, 5% v/v CO2, 37° C.). On the day of the assay, test compounds in various concentrations are placed for 10 minutes in the wells of the microtiter plate before the agonist [Arg^8]-vasopressin at EC50 concentration is added. The resulting light signal is measured immediately in the luminometer.

human V2 receptor, sequence (P30518 whole entry): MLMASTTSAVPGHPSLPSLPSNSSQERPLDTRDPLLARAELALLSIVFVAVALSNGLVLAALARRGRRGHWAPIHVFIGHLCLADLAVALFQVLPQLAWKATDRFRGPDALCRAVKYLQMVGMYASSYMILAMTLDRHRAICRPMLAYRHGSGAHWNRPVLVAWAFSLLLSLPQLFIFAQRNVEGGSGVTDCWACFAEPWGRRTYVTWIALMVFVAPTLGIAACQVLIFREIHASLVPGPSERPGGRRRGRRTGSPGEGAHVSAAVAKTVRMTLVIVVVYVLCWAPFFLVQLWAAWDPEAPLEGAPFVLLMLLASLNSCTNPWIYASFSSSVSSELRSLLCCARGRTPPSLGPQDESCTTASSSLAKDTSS
human V1a receptor, sequence (P37288 whole entry): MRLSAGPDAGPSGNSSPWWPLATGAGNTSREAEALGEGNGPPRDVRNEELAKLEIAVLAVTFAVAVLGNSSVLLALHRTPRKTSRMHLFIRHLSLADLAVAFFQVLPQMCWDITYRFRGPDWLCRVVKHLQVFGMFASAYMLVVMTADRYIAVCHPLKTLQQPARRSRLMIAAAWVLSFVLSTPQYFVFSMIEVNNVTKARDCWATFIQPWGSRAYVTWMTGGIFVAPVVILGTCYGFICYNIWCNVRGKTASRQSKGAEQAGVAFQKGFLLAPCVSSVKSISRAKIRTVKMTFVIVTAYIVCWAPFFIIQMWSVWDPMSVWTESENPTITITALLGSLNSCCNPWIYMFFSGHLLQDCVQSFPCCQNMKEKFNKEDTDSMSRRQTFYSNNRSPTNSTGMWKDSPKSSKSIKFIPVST

| IC50 [1] | IC50 [3] | SMILES | Urinary volume [% vs. control = 100%] ([2]; 0.3 mg/kg p.o.) | Urinary volume [% vs. control = 100%] ([2]; 3.0 mg/kg p.o.) |
| --- | --- | --- | --- | --- |
| 4.9 nM | 0.5 nM | CC(=O)c1nc(Cn2nc(-c3ccc(Cl)cc3)n(C[C@H](O)C(F)(F)F)c2=O)nn1-c1ccccc1Cl [Example 3, 2-{[5-Acetyl-1-(2-chlorophenyl)-1H-1,2,4-triazol-3-yl]methyl}-5-(4-chlorophenyl)-4-[(2S)-3,3,3-trifluoro-2-hydroxypropyl]-2,4-dihydro-3H-1,2,4-triazol-3-one] | 172 % vs. control = 100% | 679 % vs. control = 100% |
| 2.8 nM | 55 nM | CC(O)c1nc(Cn2nc(-c3ccc(Cl)cc3)n(CC(=O)C(F)(F)F)c2=O)nn1-c1cccc(Cl)c1 [Example 5, 5-(4-Chlorophenyl)-2-({1-(3-chlorophenyl)-5-[(1S,R)-1-hydroxyethyl]-1H-1,2,4-triazol-3-yl}methyl)-4-(3,3,3-trifluoro-2-oxopropyl)-2,4-dihydro-3H-1,2,4-triazol-3-one] | – | – |
| – | – | O=c1n(Cc2cn(-c3ccccc3Cl)cn2)nc(-c2ccc(Cl)cc2)n1C[C@H](O)C(F)(F)F [Example No. WO 2011/104322 110] | 114 % vs. control = 100% | 274 % vs. control = 100% |
| 6.7 nM | 1.3 nM | COC(=O)Cn1nc(-c2ccccc2Cl)nc1Cn1nc(-c2ccc(Cl)cc2)n(C[C@H](O)C(F)(F)F)c1=O [Example No. WO 2011/104322 56] | 128 % vs. control = 100% | 85 % vs. control = 100% |
| – | – | O=c1n(Cc2cn(-c3ccccc3Cl)nn2)nc(-c2ccc(Cl)cc2)n1C[C@H](O)C(F)(F)F [Example No. WO 2011/104322 101] | 111 % vs. control = 100% | 255 % vs. control = 100% |
| – | – | NC(=O)Cn1nc(Cn2nc(-c3ccc(Cl)cc3)n(C[C@H](O)C(F)(F)F)c2=O)nc1-c1ccccc1Cl [Example No. WO 2011/104322 68] | 87 % vs. control = 100% | 121 % vs. control = 100% |
| – | – | O=C(O)Cn1nc(Cn2nc(-c3ccc(Cl)cc3)n(C[C@H](O)C(F)(F)F)c2=O)nc1-c1ccccc1Cl [Example No. WO 2011/104322 60] | 96 % vs. control = 100% | 84 % vs. control = 100% |
| – | – | O=c1n(Cc2nnc(-c3ccccc3Cl)[nH]2)nc(-c2ccc(Cl)cc2)n1C[C@H](O)C(F)(F)F [Example No. WO 2011/104322 54] | 85 % vs. control = 100% | 188 % vs. control = 100% |
| 7.7 nM | 123 nM | CC(=O)c1nc(Cn2nc(-c3ccc(Cl)cc3)n(CC(=O)C(F)(F)F)c2=O)nn1-c1cccc(Cl)c1 [Example 4, 2-{[5-Acetyl-1-(3-chlorophenyl)-1H-1,2,4-triazol-3-yl]methyl}-5-(4-chlorophenyl)-4-(3,3,3-trifluoro-2-oxopropyl)-2,4-dihydro-3H-1,2,4-triazol-3-one] | – | – |
| 6.2 nM | 7.5 nM | CC(=O)c1nc(Cn2nc(-c3ccc(Cl)cc3)n(C[C@H](O)C(F)(F)F)c2=O)nn1-c1cccc(F)c1 [Example 2, 2-{[5-Acetyl-1-(3-fluorophenyl)-1H-1,2,4-triazol-3-yl]methyl}-5-(4-chlorophenyl)-4-[(2S)-3,3,3-trifluoro-2-hydroxypropyl]-2,4-dihydro-3H-1,2,4-triazol-3-one] | – | – |
| 2.3 nM | 34.5 nM | CC(=O)c1nc(Cn2nc(-c3ccc(Cl)cc3)n(C[C@H](O)C(F)(F)F)c2=O)nn1-c1cccc(Cl)c1 [Example 1, 2-{[5-Acetyl-1-(3-chlorophenyl)-1H-1,2,4-triazol-3-yl]methyl}-5-(4-chlorophenyl)-4-[(2S)-3,3,3-trifluoro-2-hydroxypropyl]-2,4-dihydro-3H-1,2,4-triazol-3-one] | 344 % vs. control = 100% | 554 % vs. control = 100% |
